From the supplement of paper PMC8671470

Key:
Details in all cases: 72 h
ML-2 [1] = system: ML-2
Summary of the method: (§1)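 Fifteen myeloid leukaemia cell lines were seeded in RPMI 1640 at a density titrated to the linear growth range. Each line went into 384-well plates with compounds acoustically pre-printed at five tenfold doses from 1 to 10,000 nM, in duplicate, and was incubated for 72 h at 37 °C with 5% CO2. Luminescent ATP viability was normalised to vehicle and to a positive control at 10 µM. The IC50 came from four-parameter log-logistic dose–response fits.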

Mono-Mac-6 [2] = system: Mono-Mac-6
Summary of the method: as §1

THP-1 [3] = system: THP-1
Summary of the method: as §1

K-562 [4] = system: K-562
Summary of the method: as §1

KCL-22 [5] = system: KCL-22
Summary of the method: as §1

LAMA-84 [6] = system: LAMA-84
Summary of the method: as §1

SHI-1 [7] = system: SHI-1
Summary of the method: as §1

KU-812 [8] = system: KU-812
Summary of the method: as §1

MV4-11 [9] = system: MV4-11
Summary of the method: as §1

HL-60 [10] = system: HL-60
Summary of the method: as §1

MOLM-13 [11] = system: MOLM-13
Summary of the method: as §1

KG-1 [12] = system: KG-1
Summary of the method: as §1

NOMO-1 [13] = system: NOMO-1
Summary of the method: as §1

HEL [14] = system: HEL
Summary of the method: as §1

BV-173 [15] = system: BV-173
Summary of the method: as §1

ML-2 [16] = assay: cell viability (% survival relative to DMSO control, bortezomib = 0%); higher = less cytotoxic
Summary of the method: (§2)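 Fifteen myeloid leukaemia cell lines were exposed to compounds at 1, 10, 100, 1000 or 10000 nM in 384-well plates for 72 h at 37 °C and 5% CO2. Viability was read by CellTiter-Glo luminescence and normalised, with vehicle as 100% and a 10 µM positive control as 0%. Values are percent survival averaged over duplicates.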

Mono-Mac-6 [17] = assay: as above
Summary of the method: as §2

THP-1 [18] = assay: as above
Summary of the method: as §2

K-562 [19] = assay: as above
Summary of the method: as §2

KCL-22 [20] = assay: as above
Summary of the method: as §2

LAMA-84 [21] = assay: as above
Summary of the method: as §2

SHI-1 [22] = assay: as above
Summary of the method: as §2

KU-812 [23] = assay: as above
Summary of the method: as §2

MV4-11 [24] = assay: as above
Summary of the method: as §2

HL-60 [25] = assay: as above
Summary of the method: as §2

MOLM-13 [26] = assay: as above
Summary of the method: as §2

KG-1 [27] = assay: as above
Summary of the method: as §2

NOMO-1 [28] = assay: as above
Summary of the method: as §2

HEL [29] = assay: as above
Summary of the method: as §2

BV-173 [30] = assay: as above
Summary of the method: as §2

N#Cc1ccc(N(Cc2ccc(Br)cc2)n2cnnc2)cc1 [YM511]
Details | IC50 (cell viability) [µM]
BV-173 [15] | > 10
HEL [14] | > 10
HL-60 [10] | > 10
K-562 [4] | > 10
KCL-22 [5] | > 10
KG-1 [12] | > 10
KU-812 [8] | > 10
LAMA-84 [6] | > 10
ML-2 [1] | > 10
MOLM-13 [11] | > 10
MV4-11 [9] | > 10
Mono-Mac-6 [2] | > 10
NOMO-1 [13] | > 10
SHI-1 [7] | > 10
THP-1 [3] | > 10

cell viability [%]
Details | 1 nM | 10 nM | 100 nM | 1000 nM | 10000 nM
BV-173 [30] | 92 | 95.3 | 101 | 107 | 100
HEL [29] | 113 | 104 | 97.7 | 118 | 104
HL-60 [25] | 104 | 76.2 | 102 | 117 | 101
K-562 [19] | 107 | 104 | 97 | 115 | 99.3
KCL-22 [20] | 111 | 97.9 | 106 | 102 | 99.6
KG-1 [27] | 99.3 | 105 | 90.2 | 118 | 92.1
KU-812 [23] | 95.9 | 99.6 | 89.3 | 102 | 92.7
LAMA-84 [21] | 106 | 100 | 93.4 | 101 | 103
ML-2 [16] | 105 | 108 | 106 | 107 | 98.5
MOLM-13 [26] | 131 | 99.5 | 91.6 | 105 | 94.5
MV4-11 [24] | 98.9 | 93.6 | 115 | 106 | 98.9
Mono-Mac-6 [17] | 110 | 102 | 97 | 106 | 93.9
NOMO-1 [28] | 103 | 104 | 98.4 | 104 | 96.2
SHI-1 [22] | 117 | 103 | 95.7 | 103 | 102
THP-1 [18] | 99.3 | 103 | 93.4 | 105 | 91.9
